This is an account of results in PubChem BioAssay (NCI).

Holding throughout (experiment): NCI anticancer screen, dose series, 48 h
The test system of test [1] is PC-3 prostate.
Test [2] deals with IGROV1 ovarian.
The subject of test [3] is NCI/ADR-RES ovarian.
The test system of test [4] is M14 melanoma.
Test [5] concerns UACC-257 melanoma.
The subject of test [6] is A549 NSCLC.
Test [7] relates to HT29 colon.
The test system of test [8] is OVCAR-3 ovarian.
Test [9] relates to CCRF-CEM leukemia.
The subject of test [10] is OVCAR-4 ovarian.

“And” between values parts separate entries of the source, which are not always exact repeats. Equal values may be shown once.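 1) Cells in 96-well plates. 2) Compound, 48 h, 5 concentrations. 3) Linear interpolation between surrounding doses. 4) Unreached endpoint = highest concentration. GI50 = concentration required for 50% inhibition of growth. TGI: concentration producing complete growth inhibition.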

With `Cc1ccc(CNc2ccc(Cl)cc2NCc2ccc(C)c(O)c2)cc1O`, the GI50 in test [1] was 6.33 µM; in test [2] it was 8.66 µM; in [3], 8.3 µM; in test [4] it was 5.78 µM; in test [5], 8.12 µM; in test [6], 8.13 µM. Moreover, the GI50 in [7] was 9.73 µM; in test [8], 7.15 µM; in [9], 5.02 µM; in test [10], 6.63 µM. The TGI came to 13.3 µM in test [1]; 18 µM in [2]; 17.8 µM in test [3]; 12.6 µM in test [4]; 15.6 µM in test [5]; 15.3 µM in test [6]. Moreover, the TGI worked out at 17.9 µM in test [7], 13.9 µM in test [8], 17.2 µM in test [9] and 14.4 µM in test [10].

With `Cc1n[nH]c(C)c1-c1c(C)n[nH]c1C`, the GI50 in test [1] is 1.51 µM; in [2] it was 1.8 µM; in test [3], 2.19 µM; in test [4], 2.01 µM; in test [5], 2.18 µM; in [6] it was 1.68 µM. In addition, the GI50 in test [7] is 2.01 µM; in test [8], 1.6 µM; in test [9], 1.45 µM; in test [10] it was 2.28 µM. The TGI in [1] was 4.01 µM; in test [2], 4.3 µM; in [3] it was 6.16 µM; in [4] it was 5.12 µM; in [5], 5.68 µM; in [6], 4.35 µM. For the same compound, the TGI is 4.81 µM in test [7], 3.05 µM in test [8], more than 100 µM in [9] and 6.38 µM in test [10].

Regarding `CS(=O)c1cc(=O)c2ccccc2s1` (stereo not given), the TGI is 28.9 µM in [1]; 34.2 µM in [2]; 34.1 µM in [3]; 3.12 µM in test [4]; 7.26 µM in test [5]; 38.3 µM in test [6]. Also, the TGI in test [7] turned out to be 12.9 µM; in [8] it was 4.47 µM; in [9], 4.45 µM; in test [10], 5.95 µM.

Take `CC[C@@]12CC(C(=O)OC)=C3Nc4ccccc4[C@@]34CCN(C[C@H]3O[C@H]31)[C@@H]24`: the GI50 in [1] was 52.7 µM; in test [2] it was 52.3 µM; in test [3], 31 µM; in [4], 31.7 µM; in [5], 66.7 µM; in [6] it was 58.3 µM. For the same compound, the GI50 in [7] was 29.2 µM; in [8], 78.5 µM; in test [9], 33.9 µM; in test [10], 82.5 µM. Also, the TGI in test [1], in test [2], in test [3], in test [4], in test [5] and in test [6] was more than 100 µM each time. Further, the TGI in test [7], in [8], in [9] and in test [10] was more than 100 µM throughout.

Take `CN(C)CCCn1c2c(c3ccc(N4CCNCC4)cc3c1=O)C(=O)c1ccccc1-2`: the GI50 in test [1] is 0.863 µM; in [2], 0.844 µM; in test [3], 1.16 µM; in [4], 1.05 µM; in [5], 1.69 µM; in [6], 0.224 µM. Further, the GI50 is 0.351 µM in [7], 1.05 µM in [8], 0.335 µM in test [9] and 0.343 µM in test [10]. For the same compound, the TGI in test [1] turned out to be 3.79 µM; in [2], 3.73 µM; in test [3], 2.83 µM; in test [4] it was 2.39 µM; in test [5], 3.74 µM; in test [6] it was 2.23 µM. For the same compound, the TGI in [7] turned out to be 1.9 µM; in [8], 3.07 µM; in [9] it was 1.94 µM; in [10], 1.88 µM.

Take `COc1cc(F)c(F)c(F)c1C(=O)c1cnc(NC2CCN(S(C)(=O)=O)CC2)nc1N`: the GI50 in test [1] was 0.476 µM; in [2], 1.12 µM; in test [3], 5.16 µM; in test [4], 3.09 µM; in test [5], 3 µM; in test [6] it was 1 µM. The GI50 in test [7] was 1.07 µM; in test [8], 2.33 µM; in [9], 1.21 µM; in [10], 3.29 µM. Also, the TGI is 9.3 µM in test [1]; 21 µM in test [2]; more than 25 µM in [3]; 10.2 µM in test [4]; 14 µM in test [5]; more than 25 µM in [6]. Further, the TGI is 15.2 µM in test [7], more than 19 µM in [8], more than 25 µM in [9] and more than 25 µM in test [10].

On to `NC1=Nc2cc(OCCCCN3Cc4ccccc4C3)c(OCC3CC3)cc2C12CCCC2`, for which the GI50 in [1] was 1.69 µM; in test [2] it was 1.42 µM; in [3] it was 1.73 µM; in test [4] it was 1.77 µM; in [5] it was 1.62 µM; in test [6] it was 1.99 µM. Also, the GI50 is 1.26 µM in test [7], 1.49 µM in test [8], 2.48 µM in test [9] and 3.11 µM in test [10]. Further, the TGI amounted to 7.81 µM in [1]; 2.98 µM in [2]; 3.41 µM in [3]; 3.51 µM in test [4]; 3.48 µM in test [5]; 4.84 µM in test [6]. Further, the TGI is 3.13 µM in [7], 3.16 µM in test [8], 9.5 µM in test [9] and 14.7 µM in test [10].

As to `O=C(/C=C/c1ccccc1)c1ccccn1`, the TGI was 47.3 µM and 41.3 µM in [1]; 22.8 µM and 37.9 µM in test [2]; 54.5 µM and > 100 µM in [3]; 29.9 µM in test [4]; 26.9 µM and 32.3 µM in [5]; 46.1 µM and > 100 µM in test [6]. The TGI in test [7] is 28.9 µM and 48.3 µM; in [8] it was 26.8 µM and 43.3 µM; in test [9], 45.4 µM and 57.6 µM; in test [10], 54.8 µM and 47.2 µM.
